Reference: patent publication US20220016243A1, “METHODS FOR TREATMENT OF CANCER WITH AN ANTI-TIGIT ANTAGONIST ANTIBODY” (Genentech, Inc., priority 2020, published 2022)
Read-outs that look alike come from different tables or passages of the source.

Experiments:
[1] = test system: patients with metastatic bladder; conditions: 8 of 17 patients at the recommended Phase II dose; prior CPI treatment; 95% CI: 23, 72.2; cited from earlier work
[2] = test system: patients with mUC who had progressed on platinum-based therapy and checkpoint inhibitor therapy; conditions: cited from earlier work
[3] = test system: chemotherapy-naive patients with locally advanced unresectable or metastatic PD-L1-selected NSCLC; conditions: cutoff 30 Jun. 2019
[4] = test system: patients with advanced or metastatic HCC; conditions: cited from earlier work
[5] = cited from earlier work
[6] = Internal safety review of lung cancer clinical trials (paclitaxel); format: in vivo, human; conditions: patients from Asian countries compared with those from non-Asian countries
Experimental: Patients of Asian race/ethnicity have a lower starting dose of paclitaxel at 175 mg/m2 IV over 3 hours. […] As used in this study, Asian race/ethnicity refers to a panethnic/racial group that includes diverse populations who either live or have ancestral origins in East Asia, Southeast Asia, or South Asia. The applicability of such term in a particular patient is at the discretion of the treating investigator and should be based on the patient's clinical characteristics and country of origin.

[7] = human, in vivo; cited from earlier work

enfortumab vedotin
patients who obtained a PR [1]: 47%

sacituzumab govitecan
ORR ([2]; 35 patients): 29% | ORR ([2]; patients with liver metastases): 25.0%

placebo and atezolizumab: control arm of Study GO40290: placebo in combination with atezolizumab
all-grade adverse events ([3]; 135 safety-evaluable patients, tiragolumab 600 mg every 3 weeks): 95.6% | ORR ([3]; ITT population): 16.2% | investigator-assessed PFS ([3]; ITT population): 3.6 months | AEs leading to treatment discontinuation [3]: 10.3% | Grade ≥3 AEs [3]: 44.1% | adverse events of special interest [3]: 32.4% | serious AEs [3]: 35.3%

CNC(=O)c1cc(Oc2ccc(NC(=O)Nc3ccc(Cl)c(C(F)(F)F)c3)cc2)ccn1 [sorafenib]
median PFS ([4]; Independent Review Facility-assessed per RECIST v1.1): 4.27 months | median OS ([4]; in vivo): 13.24 months

[NH2][Pt]1([NH2])[O]C(=O)C2(CCC2)C(=O)[O]1 [carboplatin, platinum, diammine[I,I-cyclobutanedicarboxylato(2-)-0,0′]-, (SP-4-2)]
pH of a 1% solution ([5]; 1% solution): 5 to 7 | solubility in ethanol, acetone, and dimethylacetamide ([5]; ethanol, acetone, dimethylacetamide): virtually insoluble | solubility in water ([5]; water): approximately 14 mg/mL

CC(=O)O[C@H]1C(=O)[C@@]2(C)[C@H]([C@H](OC(=O)c3ccccc3)[C@]3(O)C[C@H](OC(=O)[C@H](O)[C@@H](NC(=O)c4ccccc4)c4ccccc4)C(C)=C1C3(C)C)[C@]1(OC(C)=O)CO[C@@H]1C[C@@H]2O [paclitaxel]
incidence of hematologic toxicities [6]: higher overall incidence of hematologic toxicities

Nc1ccn([C@@H]2O[C@H](CO)[C@@H](O)C2(F)F)c(=O)n1 [gemcitabine]
most common adverse events [7]: nausea/vomiting, anemia, hepatic transaminitis, neutropenia, increased ALP, proteinuria, fever, hematuria, rash, thrombocytopenia, dyspnea, and peripheral edema
